According to PubChem BioAssay AID256 (DTP/NCI, 2004):
Toxic doses and inconclusive results are not listed. The calls were made as follows: active = survival T/C of 150% or more; inactive = T/C below 125% in these data.

Test system: CD2F1 mice, L1210 leukemia ip, survival T/C
Experiment: NCI In Vivo Anticancer Drug Screen. Data for tumor model L1210 Leukemia (intraperitoneal) in CD2F1 (CDF1) mice
Settings: endpoint: mean survival time, higher = longer survival
Procedure, shortened: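 Antitumor effect is scored in animals hosting a serially transplanted tumor. Values compare compound-dosed animals against vehicle-only controls as a simple quotient.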

[1] = dose: 100.0 mg/kg/injection, schedule: Q01DX009 (ip), vehicle: saline
[2] = dose: 100.0 mg/kg/injection, schedule: Q04DX003 (ip), vehicle: saline
[3] = dose: 200.0 mg/kg/injection, schedule: Q01DX009 (ip), vehicle: saline
[4] = dose: 200.0 mg/kg/injection, schedule: Q04DX003 (ip), vehicle: saline
[5] = dose: 400.0 mg/kg/injection, schedule: Q01DX009 (ip), vehicle: saline
[6] = dose: 400.0 mg/kg/injection, schedule: Q04DX003 (ip), vehicle: saline
[7] = dose: 100.0 mg/kg/injection, schedule: Q04DX003 (ip), vehicle: saline with Tween-80
[8] = dose: 200.0 mg/kg/injection, schedule: Q04DX003 (ip), vehicle: saline with Tween-80
[9] = dose: 400.0 mg/kg/injection, schedule: Q04DX003 (ip), vehicle: saline with Tween-80
[10] = dose: 100.0 mg/kg/injection, schedule: Q01DX009 (ip), vehicle: saline with Tween-80
[11] = dose: 200.0 mg/kg/injection, schedule: Q01DX009 (ip), vehicle: saline with Tween-80
[12] = dose: 400.0 mg/kg/injection, schedule: Q01DX009 (ip), vehicle: saline with Tween-80
[13] = dose: 50.0 mg/kg/injection, schedule: Q01DX009 (ip), vehicle: Klucel (hydroxypropylcellulose) (HPC)
[14] = dose: 100.0 mg/kg/injection, schedule: Q01DX009 (ip), vehicle: Klucel (hydroxypropylcellulose) (HPC)
[15] = dose: 200.0 mg/kg/injection, schedule: Q01DX009 (ip), vehicle: Klucel (hydroxypropylcellulose) (HPC)
[16] = dose: 50.0 mg/kg/injection, schedule: Q01DX001 (ip), vehicle: saline
[17] = dose: 100.0 mg/kg/injection, schedule: Q01DX001 (ip), vehicle: saline
[18] = dose: 200.0 mg/kg/injection, schedule: Q01DX001 (ip), vehicle: saline

Measured: T/C

CNC(=O)OCc1c(COC(=O)NC)c(C)n(-c2ccccc2)c1C
inactive: dose: 6.25 mg/kg/injection, schedule: Q01DX009 (ip), vehicle: Klucel (hydroxypropylcellulose) (HPC) 109 % of control | dose: 12.5 mg/kg/injection, schedule: Q01DX009 (ip), vehicle: Klucel (hydroxypropylcellulose) (HPC) 106 % of control | dose: 25.0 mg/kg/injection, schedule: Q01DX009 (ip), vehicle: Klucel (hydroxypropylcellulose) (HPC) 104 % of control

O=S(=O)(/C=C(/Br)c1ccccc1)c1ccccc1
inactive: [1] 96 % of control | [2] 100 % of control | [3] 91 % of control | [4] 100 % of control | [5] 90 % of control | [6] 100 % of control

CNc1nc(N(C)C)nc(N(C)C)n1
inactive: dose: 6.25 mg/kg/injection, schedule: Q01DX009 (ip), vehicle: saline 97 % of control | dose: 6.25 mg/kg/injection, schedule: Q01DX009 (ip), vehicle: water 107 % of control | dose: 12.5 mg/kg/injection, schedule: Q01DX009 (ip), vehicle: saline 97 % of control | dose: 12.5 mg/kg/injection, schedule: Q01DX009 (ip), vehicle: water 104 % of control | dose: 25.0 mg/kg/injection, schedule: Q01DX009 (ip), vehicle: saline 100 % of control | dose: 25.0 mg/kg/injection, schedule: Q01DX009 (ip), vehicle: water 104 % of control | dose: 50.0 mg/kg/injection, schedule: Q01DX009 (ip), vehicle: saline 101 % of control | dose: 50.0 mg/kg/injection, schedule: Q01DX009 (ip), vehicle: water 110 % of control | [1] 111 % of control | dose: 100.0 mg/kg/injection, schedule: Q01DX009 (ip), vehicle: water 119 % of control

CC(S)CN (stereo not given)
inactive: [1] 96 % of control | [2] 101 % of control | [3] 94 % of control | [4] 98 % of control | [5] 101 % of control | [6] 104 % of control

Cc1cc(C(C)(C)C)c(OC(=S)N(C)C)c(C(C)(C)C)c1
inactive: dose: 25.0 mg/kg/injection, schedule: Q01DX009 (ip), vehicle: saline with Tween-80 92 % of control | dose: 50.0 mg/kg/injection, schedule: Q01DX009 (ip), vehicle: saline with Tween-80 89 % of control

O=P(O)(O)CP(=O)(O)O.[NH-]CC[NH-].[NH-]CC[NH-].[Pd+2].[Pd+2]
inactive: dose: 3.13 mg/kg/injection, schedule: Q04DX003 (ip), vehicle: distilled water + Tween-80 95 % of control | dose: 6.25 mg/kg/injection, schedule: Q04DX003 (ip), vehicle: distilled water + Tween-80 106 % of control | dose: 12.5 mg/kg/injection, schedule: Q04DX003 (ip), vehicle: distilled water + Tween-80 95 % of control | dose: 25.0 mg/kg/injection, schedule: Q04DX003 (ip), vehicle: distilled water + Tween-80 97 % of control | dose: 50.0 mg/kg/injection, schedule: Q04DX003 (ip), vehicle: distilled water + Tween-80 98 % of control | dose: 100.0 mg/kg/injection, schedule: Q04DX003 (ip), vehicle: distilled water + Tween-80 106 % of control

Cc1ccc(-n2c(O)c(C=N)c(=O)n(-c3ccc(C)cc3)c2=O)cc1
inactive: [7] 95 % of control | [8] 95 % of control | [9] 97 % of control

CC(=O)[C@]1(O)Cc2c(O)c3c(c(O)c2[C@@H](OC2CC(N)C(O)C(C)O2)C1)C(=O)c1c(O)cccc1C3=O (stereo not given in full)
inactive: dose: 0.05 mg/kg/injection, schedule: Q01DX009 (ip), vehicle: saline 118 % of control | dose: 0.08 mg/kg/injection, schedule: Q01DX009 (ip), vehicle: saline 120 % of control | dose: 0.08 mg/kg/injection, schedule: Q04DX003 (ip), vehicle: saline 107 % of control | dose: 0.14 mg/kg/injection, schedule: Q04DX003 (ip), vehicle: saline 109 % of control | dose: 0.23 mg/kg/injection, schedule: Q04DX003 (ip), vehicle: saline 123 % of control | dose: 0.39 mg/kg/injection, schedule: Q01DX009 (ip), vehicle: saline 113 % of control | dose: 0.65 mg/kg/injection, schedule: Q01DX009 (ip), vehicle: saline 88 % of control

O=S(=O)(C(Br)CBr)C(Br)CBr (stereo not given)
inactive: [7] 95 % of control

CC1(C)CC(=O)C2(C)CCC3(CC2C1)OCCO3 (stereo not given)
inactive: [7] 96 % of control | [8] 96 % of control | [9] 96 % of control

Cc1cc(C)c(C)c(Br)c1
inactive: dose: 100.0 mg/kg/injection, schedule: Q01DX009 (ip), vehicle: saline sonified 95 % of control | [7] 100 % of control | [9] 102 % of control

O=C(CC(=O)c1ccccc1F)Nc1ccc([N+](=O)[O-])cc1
inactive: [10] 90 % of control | [7] 96 % of control | [11] 93 % of control | [8] 95 % of control | [12] 88 % of control | [9] 97 % of control

O=C1C(c2ccccc2)=[N+]([O-])[N+]([O-])=C1c1ccccc1
inactive: [13] 97 % of control | [14] 97 % of control | [15] 101 % of control

CC1CC(C)(C)NC(CCC2CCCCC23OCCO3)O1 (stereo not given)
inactive: dose: 100.0 mg/kg/injection, schedule: Q01DX001 (ip), vehicle: saline with Tween-80 107 % of control | dose: 200.0 mg/kg/injection, schedule: Q01DX001 (ip), vehicle: saline with Tween-80 105 % of control | dose: 400.0 mg/kg/injection, schedule: Q01DX001 (ip), vehicle: saline with Tween-80 97 % of control

CCCCCCCC1SC(=S)NC1=O (stereo not given)
inactive: dose: 12.5 mg/kg/injection, schedule: Q01DX009 (ip), vehicle: other 95 % of control | dose: 25.0 mg/kg/injection, schedule: Q01DX009 (ip), vehicle: other 89 % of control | dose: 50.0 mg/kg/injection, schedule: Q01DX009 (ip), vehicle: other 100 % of control | dose: 100.0 mg/kg/injection, schedule: Q01DX009 (ip), vehicle: other 91 % of control

COc1cc2c(c(OC)c1OC)-c1ccc(SC)c(=O)cc1C(NC(=S)NC1OC(COC(C)=O)C(OC(C)=O)C(OC(C)=O)C1OC(C)=O)CC2 (stereo not given)
inactive: [13] 86 % of control | [14] 89 % of control | [15] 101 % of control

CCCc1ccc(Nc2c3ccccc3nc3ccccc23)cc1
inactive: dose: 100.0 mg/kg/injection, schedule: Q04DX002 (ip), vehicle: saline with Tween-80 107 % of control | dose: 200.0 mg/kg/injection, schedule: Q04DX002 (ip), vehicle: saline with Tween-80 114 % of control | dose: 400.0 mg/kg/injection, schedule: Q04DX002 (ip), vehicle: saline with Tween-80 105 % of control

COc1ccc(/C=C/C(=O)c2ccccc2)cc1Br
inactive: [10] 104 % of control | [7] 97 % of control | [11] 98 % of control | [8] 98 % of control | [12] 101 % of control | [9] 95 % of control

CN1C(=O)C(C)(C)C(=O)C1(C)C
inactive: dose: 25.0 mg/kg/injection, schedule: Q01DX001 (ip), vehicle: saline 103 % of control | [16] 104 % of control | [17] 103 % of control

NCC1CCCCO1 (stereo not given)
inactive: [16] 90 % of control | [17] 98 % of control | [18] 93 % of control

CC1CC(C(=O)O)C(S(N)(=O)=O)C1 (stereo not given)
inactive: dose: 50.0 mg/kg/injection, schedule: Q04DX002 (ip), vehicle: saline 97 % of control | dose: 100.0 mg/kg/injection, schedule: Q04DX002 (ip), vehicle: saline 108 % of control | dose: 200.0 mg/kg/injection, schedule: Q04DX002 (ip), vehicle: saline 108 % of control

CC(C)CC(NC(c1ccccc1)(c1ccccc1)c1ccccc1)C(=O)O (stereo not given)
inactive: [17] 102 % of control | [18] 95 % of control | dose: 400.0 mg/kg/injection, schedule: Q01DX001 (ip), vehicle: saline 102 % of control
